The target in experiment [1] is GDP-bound KRAS protein (aa 1-169), containing both G12C and C118A amino acid substitutions (Homo sapiens (Human), UniProt P01116, C118A/G12C). As to the kind of experiment: Coupled nucleotide exchange assay (SOS-mediated nucleotide exchange, AlphaScreen). The following applies: 5 min compound pre-incubation; for IC50: read-out: Coupled exchange IC50 (5 min; μM). It is filed as biochemical. On the technique in general: In Alpha technology, singlet oxygen from a donor bead excites a nearby acceptor bead.

Experiment [2] has as its system Phosphorylation of ERK1/2 in MIA PaCa-2 cells. As to the kind of experiment: Phospho-ERK1/2 MSD assay in MIA PaCa-2 cells. The class given is cell-based. The conditions noted are these: read-out: p-ERK IC50 (2 h, MiaPaCa-2; μM), 2 h compound treatment, MIA PaCa-2 cells, EGF stimulated. The method in brief:
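Phospho-ERK1/2 measured by MSD electrochemiluminescence kit in RIPA lysates of MIA PaCa-2 cells. Cells were treated with compound titrations for 2 or 4 h at 37 °C, 5% CO2, followed by a 10 min pulse of 10 ng/mL EGF.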

Experiment [3] relates to Phosphorylation of ERK1/2 in A549 cells. As to the kind of experiment: Phospho-ERK1/2 MSD assay in A549 cells. The class given is cell-based. The following applies: Homo sapiens, A549, 2 h, read-out: p-ERK IC50 (2 h, A549; μM), 2 h compound treatment, A549 cells, EGF stimulated. An outline of the steps:
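Readout: MSD phospho-ERK1/2 signal after compound (2 or 4 h) and 10 min EGF stimulation at 10 ng/mL.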

Read-outs that look alike come from different tables or passages of the source. Where only a bound is given, the exact number is not on record here.

Sequence of GDP-bound KRAS protein (aa 1-169), containing both G12C and C118A amino acid substitutions (P01116 other isoform, or with tags, fused parts or gaps G12C/C118A): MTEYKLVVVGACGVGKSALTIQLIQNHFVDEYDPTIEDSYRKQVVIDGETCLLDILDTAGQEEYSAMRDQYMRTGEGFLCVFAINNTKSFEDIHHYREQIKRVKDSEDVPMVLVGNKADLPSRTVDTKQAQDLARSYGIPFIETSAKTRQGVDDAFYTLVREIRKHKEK

What is called IC50 is the concentration at which inhibition is half-maximal. With `C=CC(=O)N1C[C@H](C)N(c2nc(=O)n(CC(C)(C)OC)c3nc(-c4ccccc4F)c(Cl)cc23)C[C@H]1C` [Example 106-4, 6-Chloro-4-[(2S,5R)-2,5-dimethyl-4-prop-2-enoyl-piperazin-1-yl]-7-(2-fluorophenyl)-1-(2-methoxy-2-methyl-propyl)pyrido[2,3-d]pyrimidin-2-one], the half-maximal inhibitory concentration (IC50) was 5.04 µM in experiment [1]; 2.45 µM in experiment [2] (Homo sapiens, MIA PaCa-2, 2 h); above 7.5 µM in experiment [3].

In the case of `C=CC(=O)N1CCN(c2nc(=O)n(CC(C)(C)OC)c3nc(-c4ccccc4F)c(Cl)cc23)CC1` [Example 106-5, 6-Chloro-7-(2-fluorophenyl)-1-(2-methoxy-2-methyl-propyl)-4-(4-prop-2-enoylpiperazin-1-yl)pyrido[2,3-d]pyrimidin-2-one], the IC50 in experiment [1] is 6.13 µM; in experiment [2] (Homo sapiens, MIA PaCa-2, 2 h) it was 1.46 µM; in experiment [3], above 7.5 µM.

For `C=CC(=O)N1C[C@@H](C)N(c2nc(=O)n(-c3c(C)ccnc3C(C)C)c3nc(-c4ccccc4F)c(Cl)nc23)[C@@H](C)C1` [Example 106-7-2, 6-Chloro-4-[(2R,6S)-2,6-dimethyl-4-prop-2-enoyl-piperazin-1-yl]-7-(2-fluorophenyl)-1-(2-isopropyl-4-methyl-3-pyridyl)pteridin-2-one], the IC50 in experiment [1] was 0.129 µM; in experiment [2] (Homo sapiens, MIA PaCa-2, 2 h) it was 0.271 µM; in experiment [3], above 7.5 µM.

For `C=CC(=O)N1C[C@H](C)N(c2nc(=O)n(CC(C)(C)C#N)c3nc(-c4ccccc4F)c(Cl)cc23)C[C@H]1C` [Example 106-8, 3-[6-Chloro-4-[(2S,5R)-2,5-dimethyl-4-prop-2-enoyl-piperazin-1-yl]-7-(2-fluorophenyl)-2-oxo-pyrido[2,3-d]pyrimidin-1-yl]-2,2-dimethyl-propanenitrile], the IC50 in experiment [1] is 3.35 µM; in experiment [2] (Homo sapiens, MIA PaCa-2, 2 h) it was 1.88 µM; in experiment [3], above 7.5 µM.

As to `C=CC(=O)N1CCN(c2nc(=O)n(CC(C)(C)C#N)c3nc(-c4ccccc4F)c(Cl)cc23)[C@@H](C)C1` [Example 106-9, 3-[6-Chloro-7-(2-fluorophenyl)-4-[(2S)-2-methyl-4-prop-2-enoyl-piperazin-1-yl]-2-oxo-pyrido[2,3-d]pyrimidin-1-yl]-2,2-dimethyl-propanenitrile], the IC50 in experiment [1] is 3.7 µM; in experiment [2] (Homo sapiens, MIA PaCa-2, 2 h), 2.24 µM; in experiment [3] it was above 7.5 µM.

For `C=CC(=O)N1C[C@H](C)N(c2nc(=O)n(-c3c(C(C)C)nc(NC)nc3C(C)C)c3nc(-c4ccccc4F)c(Cl)cc23)C[C@H]1C` [Example 107-1, 4-((2S,5R)-4-Acryloyl-2,5-dimethylpiperazin-1-yl)-6-chloro-1-(4,6-diisopropyl-2-(methylamino)pyrimidin-5-yl)-7-(2-fluorophenyl)pyrido[2,3-d]pyrimidin-2(1H)-one], the IC50 in experiment [1] is 0.026 µM; in experiment [2] (Homo sapiens, MIA PaCa-2, 2 h), 0.064 µM; in experiment [3], 5.57 µM.

Consider `C=CC(=O)N1C[C@H](C)N(c2nc(=O)n(-c3c(C(C)C)nc(N(C)C)nc3C(C)C)c3nc(-c4ccccc4F)c(Cl)cc23)C[C@H]1C` [Example 107-2, 6-Chloro-1-[2-(dimethylamino)-4,6-diisopropyl-pyrimidin-5-yl]-4-[(2S,5R)-2,5-dimethyl-4-prop-2-enoyl-piperazin-1-yl]-7-(2-fluorophenyl)pyrido [2,3-d]pyrimidin-2-one], for which the IC50 came out at 0.098 µM in experiment [1]; 0.299 µM in experiment [2] (Homo sapiens, MIA PaCa-2, 2 h); 1.25 µM in experiment [3].

`C=CC(=O)N1C[C@H](C)N(c2nc(=O)n(-c3c(C(C)C)nc(N4CCOCC4)nc3C(C)C)c3nc(-c4ccccc4F)c(Cl)cc23)C[C@H]1C` [Example 107-3, 6-Chloro-1-(4,6-diisopropyl-2-morpholino-pyrimidin-5-yl)-4-[(2S,5R)-2,5-dimethyl-4-prop-2-enoyl-piperazin-1-yl]-7-(2-fluorophenyl)pyrido [2,3-d]pyrimidin-2-one]: the IC50 in experiment [1] amounted to 0.114 µM; in experiment [2] (Homo sapiens, MIA PaCa-2, 2 h) it was 0.144 µM; in experiment [3], 3.73 µM.

For `C=CC(=O)N1C[C@H](C)N(c2nc(=O)n(-c3c(C(C)C)nc(NCCN(C)C)nc3C(C)C)c3nc(-c4ccccc4F)c(Cl)cc23)C[C@H]1C` [Example 107-4, 6-Chloro-1-[2-[2-(dimethylamino)ethylamino]-4,6-diisopropyl-pyrimidin-5-yl]-4-[(2S,5R)-2,5-dimethyl-4-prop-2-enoyl-piperazin-1-yl]-7-(2-fluorophenyl)pyrido [2,3-d]pyrimidin-2-one], the IC50 in experiment [1] is 0.051 µM; in experiment [2] (Homo sapiens, MIA PaCa-2, 2 h) it was 0.085 µM; in experiment [3] it was above 7.5 µM.

Consider `C=CC(=O)N1C[C@H](C)N(c2nc(=O)n(-c3c(C(C)C)nc(N4CCC4)nc3C(C)C)c3nc(-c4ccccc4F)c(Cl)cc23)C[C@H]1C` [Example 107-5, 1-[2-(Azetidin-1-yl)-4,6-diisopropyl-pyrimidin-5-yl]-6-chloro-4-[(2S,5R)-2,5-dimethyl-4-prop-2-enoyl-piperazin-1-yl]-7-(2-fluorophenyl)pyrido [2,3-d]pyrimidin-2-one], for which the half-inhibitory concentration (IC50) in experiment [1] came out at 0.103 µM; in experiment [2] (Homo sapiens, MIA PaCa-2, 2 h), 0.3 µM; in experiment [3], 3.25 µM.

`C=CC(=O)N1C[C@H](C)N(c2nc(=O)n(-c3c(C(C)C)ncnc3C3CC3)c3nc(-c4ccccc4F)c(Cl)cc23)C[C@H]1C` [Example 108-1, 4-((2S,5R)-4-Acryloyl-2,5-dimethylpiperazin-1-yl)-6-chloro-1-(4-cyclopropyl-6-isopropylpyrimidin-5-yl)-7-(2-fluorophenyl)pyrido[2,3-d]pyrimidin-2(1H)-one]: the IC50 in experiment [1] is 0.009 µM; in experiment [2] it was 0.039 µM; in experiment [3], above 7.5 µM.

On to `C=CC(=O)N1C[C@H](C)N(c2nc(=O)n(-c3c(C(C)C)ncnc3C3CC3)c3nc(-c4ccccc4C)c(Cl)cc23)C[C@H]1C` [Example 108-2, 6-Chloro-1-(4-cyclopropyl-6-isopropyl-pyrimidin-5-yl)-4-[(2S,5R)-2,5-dimethyl-4-prop-2-enoyl-piperazin-1-yl]-7-(o-tolyl)pyrido[2,3-d]pyrimidin-2-one], for which the figures for the IC50 in experiment [1], in experiment [2] and in experiment [3] were 0.049 µM, 0.032 µM and above 7.5 µM, respectively.

As for `C=CC(=O)N1C[C@H](C)N(c2nc(=O)n(-c3c(CC)ncnc3C(C)C)c3nc(-c4ccccc4F)c(Cl)cc23)C[C@H]1C` [Example 109-1, 4-((2S,5R)-4-Acryloyl-2,5-dimethylpiperazin-1-yl)-6-chloro-1-(4-ethyl-6-isopropylpyrimidin-5-yl)-7-(2-fluorophenyl)pyrido[2,3-d]pyrimidin-2(1H)-one], the IC50 was 0.194 µM in experiment [1]; 0.052 µM in experiment [2] (Homo sapiens, MIA PaCa-2, 2 h); above 7.5 µM in experiment [3].

`C=CC(=O)N1C[C@H](C)N(c2nc(=O)n(-c3c(CC)ncnc3C(C)C)c3nc(-c4ccccc4C)c(Cl)cc23)C[C@H]1C` [Example 109-2, 6-Chloro-4-[(2S,5R)-2,5-dimethyl-4-prop-2-enoyl-piperazin-1-yl]-1-(4-ethyl-6-isopropyl-pyrimidin-5-yl)-7-(o-tolyl)pyrido[2,3-d]pyrimidin-2-one]: in experiment [1], the “Coupled exchange IC50 (5 min; μM)” value turned out to be 0.107 µM. In addition, the IC50 in experiment [2] (Homo sapiens, MIA PaCa-2, 2 h) was 0.098 µM; in experiment [3] it was above 7.5 µM.

In the case of `C=CC(=O)N1C[C@H](C)N(c2nc(=O)n(CC(C)(C)C)c3nc(-c4ccccc4F)c(Cl)cc23)C[C@H]1C` [Example 110-1, 4-((2S,5R)-4-Acryloyl-2,5-dimethylpiperazin-1-yl)-6-chloro-7-(2-fluorophenyl)-1-neopentylpyrido[2,3-d]pyrimidin-2(1H)-one], the IC50 is 0.57 µM in experiment [1]; 1.12 µM in experiment [2] (Homo sapiens, MIA PaCa-2, 2 h); above 7.5 µM in experiment [3].

The record behind these values is patent US11285156B2, “Substituted piperazines as KRAS G12C inhibitors” (Amgen Inc., priority 2018, dated 2022).
